Structures are written as SMILES.

One experiment concerns the target T1, recombinant human COMT (Homo sapiens, UniProt P21964).
T1 construct: GST (N, cleaved yes); made in house; host or cells: E. coli BL21 (DE3) Codon Plus RP, pGEX-2T vector
T1 sequence (P21964 with tags, fused parts or gaps): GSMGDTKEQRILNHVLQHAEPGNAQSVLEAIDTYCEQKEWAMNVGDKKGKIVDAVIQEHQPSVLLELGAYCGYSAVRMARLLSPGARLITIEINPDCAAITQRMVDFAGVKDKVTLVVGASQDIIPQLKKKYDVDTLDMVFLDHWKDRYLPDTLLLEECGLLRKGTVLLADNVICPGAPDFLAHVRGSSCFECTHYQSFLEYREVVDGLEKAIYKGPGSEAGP
As to the kind of experiment: Human COMT inhibitory potency. It is filed as biochemical. The note with it: catechol substrate, [3H]-S-adenosyl-L-methionine, 37° C. 30 minutes.

The test system of experiment [1] is rat cryopreserved hepatocytes. The experiment can be described thus: Rat hepatocyte toxicities (cell viability, ATP activity). In kind it is cell-based. The note with it: concentration that shows 50% of the number of viable cells of control, 4 hours at 37° C.
Another experiment deals with Rat liver COMT. The experiment can be described thus: Inhibition of rat liver COMT activity after oral administration. As to conditions: 10 mg/kg oral, percentage of Control sample (100%); for Liver (COMT activity %) 1 hour: 1 hour after administration; for Liver (COMT activity %) 5 hours: 5 hours after administration.
Experiment [2] relates to unilateral 6-hydroxydopamine-lesioned hemi-parkinsonian rats. The experiment can be described thus: Potentiation of the efficacy of L-dopa in unilateral 6-hydroxydopamine-lesioned hemi-parkinsonian rats (turning behavior). As to conditions: 10 mg/kg oral with 5 mg/kg L-dopa and 30 mg/kg carbidopa; for Duration: duration of contralateral rotation response; for Total counts: summed contralateral rotation counts during drug action. It is filed as in vivo, rat.

The test system of the next experiment is Rat brain COMT. The experiment can be described thus: Inhibition of rat brain COMT activity after oral administration. The note with it: 10 mg/kg oral, percentage of Control sample (100%); for Brain (COMT activity %) 1 hour: 1 hour after administration; for Brain (COMT activity %) 5 hours: 5 hours after administration.

As for `O=C(c1ccccc1)c1ccc(O)c(O)c1[N+](=O)[O-]` [compound 1, (3,4-dihydroxy-2-nitrophenyl)phenymethanone, reference compound], the IC50 at recombinant human COMT amounted to 40.4 nM.
In the case of `COC(=O)c1cc(O)c(O)c([N+](=O)[O-])c1C(C)=O` [Compound 1-20], on recombinant human COMT, the half-maximal inhibitory concentration (IC50) turned out to be 9.5 nM. This molecule returned an EC50 in experiment [1] of more than 300000 nM.
In experiment [1], `N#Cc1cc(O)c(O)c([N+](=O)[O-])c1C(=O)N1CCCCC1` [Compound 1-43] displayed an EC50 of more than 300000 nM.
Take `CC(=O)c1ccc(C(=O)c2c(C(=O)OC(C)C)cc(O)c(O)c2[N+](=O)[O-])cc1` [Compound 1-7]: the IC50 at recombinant human COMT is 4 nM.
Same read-out and setting: in the case of `CCOC(=O)Oc1cc(C(=O)c2ccccc2)c(C(=O)c2ccccc2)c([N+](=O)[O-])c1OC(=O)OCC` [compound 3, carbonic acid 4,5-dibenzoyl-2-ethoxycarbonyloxy-3-nitro-phenyl ester ethy ester, reference compound] it was 1180 nM; in that of `CCOC(=O)c1cc(O)c(O)c([N+](=O)[O-])c1C(=O)c1ccno1` [Compound 1-15], 7.1 nM; in that of `CC(C)OC(=O)c1cc(O)c(O)c([N+](=O)[O-])c1C(=O)c1ccccc1C#N` [Compound 1-9], 7 nM.
The same measure, in the same setting: in the case of `COC(=O)c1ccc(C(=O)c2c(C(=O)OC(C)C)cc(O)c(O)c2[N+](=O)[O-])cc1` [Compound 1-8] it was 8.3 nM.
As for `CCOC(=O)c1cc(O)c(O)c([N+](=O)[O-])c1C(=O)c1ccccc1` [Compound 1-1, Ethyl 2-benzoyl-4,5-dihydroxy-3-nitrobenzoate], in the experiment with Rat liver COMT, the “Liver (COMT activity %) 1 hour” value is on record as 0.6% and the “Liver (COMT activity %) 5 hours” value came to 9.0%. In addition, the IC50 on recombinant human COMT worked out at 7.8 nM. For the same molecule, the EC50 in experiment [1] was determined as 262000 nM. Moreover, in experiment [2], the Duration turned out to be 522.5 min and the Total counts came out at 3188.3. Also, in the experiment with Rat brain COMT, the “Brain (COMT activity %) 1 hour” value came out at 8.9% and the “Brain (COMT activity %) 5 hours” value is given as 56.2%.
With `Cc1ccc(C(=O)c2c(C#N)cc(O)c(O)c2[N+](=O)[O-])cc1` [Compound 1-27], the IC50 at recombinant human COMT was 9.7 nM. For the same molecule, the concentration giving a half-maximal response (EC50) in experiment [1] is more than 300000 nM.
As for `N#Cc1cc(O)c(O)c([N+](=O)[O-])c1C(=O)c1ccno1` [Compound 1-37], the IC50 at recombinant human COMT came out at 8.6 nM.
The same measure, in the same setting: the result for `N#Cc1cc(O)c(O)c([N+](=O)[O-])c1C(=O)c1ccccc1F` [Compound 1-29, 2-(2-fluorobenzoyl)-4,5-dihydroxy-3-nitrobenzonitrile] reads 6.8 nM.
With `COC(=O)c1cc(O)c(O)c([N+](=O)[O-])c1C(=O)c1ccccc1` [Compound 1-2], on recombinant human COMT, the IC50 stood at 8.9 nM. In experiment [1], this molecule displayed an EC50 of more than 300000 nM. Moreover, in experiment [2], the Duration is 452.9 min and the Total counts is given as 3569.0.
For the molecule `O=C(c1ccccc1)c1cc(O)c(O)c([N+](=O)[O-])c1C(=O)c1ccccc1` [compound 2, (6-benzoyl-3,4-dihydroxy-2-nitrophenyl)phenylmethanone, reference compound], the IC50 on recombinant human COMT amounted to 54 nM.
On to `Cc1cc(C(=O)c2c(C#N)cc(O)c(O)c2[N+](=O)[O-])no1` [Compound 1-38], for which the IC50 at recombinant human COMT amounted to 8.6 nM. In experiment [1], this molecule showed a concentration for a half-maximal effect (EC50) of more than 300000 nM.
For `Cc1ccc(C(=O)c2cc(O)c(O)c([N+](=O)[O-])c2)cc1` [Tolcapone, 3,4-dihydroxy-4′-methyl-5-nitro-benzophenone, reference compound], in the experiment with Rat liver COMT, the “Liver (COMT activity %) 1 hour” value came out at 2.5% and the “Liver (COMT activity %) 5 hours” value is 30.0%. Also, in experiment [2], the Duration came out at 430.0 min and the Total counts is on record as 2578.7.
For `CCOC(=O)c1cc(O)c(O)c([N+](=O)[O-])c1C(=O)C(F)(F)F` [Compound 1-23], the IC50 at recombinant human COMT is 8.1 nM.
Turning to `CCOC(=O)c1cc(O)c(O)c([N+](=O)[O-])c1C(=O)c1cccs1` [Compound 1-13], in the experiment on Rat liver COMT, the “Liver (COMT activity %) 1 hour” value was determined as 6.6% and the “Liver (COMT activity %) 5 hours” value was found to be 15.3%. Further, the IC50 at recombinant human COMT is 8.4 nM. This molecule also had a concentration for a half-maximal effect (EC50) in experiment [1] of more than 300000 nM. In addition, in experiment [2], the Duration worked out at 461.4 min and the Total counts was determined as 3395.7. In the experiment on Rat brain COMT, the “Brain (COMT activity %) 1 hour” value was determined as 14.8% and the “Brain (COMT activity %) 5 hours” value worked out at 61.0%.
For `CCOC(=O)c1cc(O)c(O)c([N+](=O)[O-])c1C(=O)c1nccs1` [Compound 1-18], the IC50 on recombinant human COMT worked out at 4.7 nM.
Consider `N#Cc1cc(O)c(O)c([N+](=O)[O-])c1C(=O)C1CCCCC1` [Compound 1-34], for which, in the experiment on Rat liver COMT, the “Liver (COMT activity %) 1 hour” value is given as 0.0% and the “Liver (COMT activity %) 5 hours” value was determined as 1.0%. Also, the IC50 on recombinant human COMT stood at 8.1 nM. In addition, the concentration for a half-maximal effect (EC50) in experiment [1] was more than 300000 nM. For the same molecule, in the experiment on Rat brain COMT, the “Brain (COMT activity %) 1 hour” value was 62.2% and the “Brain (COMT activity %) 5 hours” value is 78.7%.
